Values of other authors as cited in patent US20210220430A1, “USE OF NOD2 AGONIST FOR THE TREATMENT, PROPHYLAXIS AND/OR DELAY OF THE ONSET OF MULTIPLE SCLEROSIS AND ALZHEIMER?S DISEASE” (UNIVERSITE LAVAL, priority 2018, published 2021).

Molecular target: NOD2 (Homo sapiens, UniProt Q9HC29)
Settings: compared with classical N-acetyl MDP

Sequence of NOD2 (Q9HC29 whole entry, species assumed): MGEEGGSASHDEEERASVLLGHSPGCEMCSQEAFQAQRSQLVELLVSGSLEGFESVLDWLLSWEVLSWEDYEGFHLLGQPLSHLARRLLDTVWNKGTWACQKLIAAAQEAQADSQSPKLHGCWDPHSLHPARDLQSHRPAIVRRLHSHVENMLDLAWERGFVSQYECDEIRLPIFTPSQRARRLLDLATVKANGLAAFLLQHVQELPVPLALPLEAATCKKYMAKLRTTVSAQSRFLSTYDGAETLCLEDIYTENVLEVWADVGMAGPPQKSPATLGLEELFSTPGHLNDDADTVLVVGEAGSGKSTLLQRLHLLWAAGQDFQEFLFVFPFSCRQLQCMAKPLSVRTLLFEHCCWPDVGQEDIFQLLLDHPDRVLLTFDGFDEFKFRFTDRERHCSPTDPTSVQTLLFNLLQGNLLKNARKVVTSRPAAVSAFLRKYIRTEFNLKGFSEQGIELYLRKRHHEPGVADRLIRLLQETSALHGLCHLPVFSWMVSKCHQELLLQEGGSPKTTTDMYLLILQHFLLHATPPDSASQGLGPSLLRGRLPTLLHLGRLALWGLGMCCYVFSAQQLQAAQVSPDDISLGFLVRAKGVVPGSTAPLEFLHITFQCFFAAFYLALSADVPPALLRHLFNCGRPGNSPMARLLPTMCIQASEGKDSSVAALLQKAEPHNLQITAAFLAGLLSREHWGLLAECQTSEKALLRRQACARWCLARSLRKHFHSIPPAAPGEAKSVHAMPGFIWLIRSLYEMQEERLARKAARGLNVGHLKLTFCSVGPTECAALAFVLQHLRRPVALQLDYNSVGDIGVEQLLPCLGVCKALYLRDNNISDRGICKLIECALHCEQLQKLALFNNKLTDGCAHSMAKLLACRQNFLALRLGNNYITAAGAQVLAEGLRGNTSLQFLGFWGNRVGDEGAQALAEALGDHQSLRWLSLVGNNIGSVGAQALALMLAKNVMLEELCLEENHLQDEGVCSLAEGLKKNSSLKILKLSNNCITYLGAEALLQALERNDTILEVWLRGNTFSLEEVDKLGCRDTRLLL

C[C@@H](NC(=O)[C@@H](C)OC1C(NC(=O)CO)[C@@H](O)OC(CO)[C@H]1O)C(=O)NC(CCC(=O)O)C(N)=O (stereo partly shown) [N-glycolyl MDP]
NOD2 agonist potency at stimulating inflammatory genes: more potent
